Where a name gives a salt, the structure may show the parent alone.
Molecular target: Human PKK (Homo sapiens (Human), UniProt P03952)
Test: Inhibition of PKK, endpoint assay (human PKK)
Assay type: biochemical
Settings: substrate H-Pro-Phe-Arg-AMC, 1 h room temperature
Procedure: Subsequently, PPACK II (Calbiochem) was added as a stop solution to achieve a final concentration of 1 μM and fluorescence was measured using an Envision Reader (PerkinElmer) with the wavelength excitation setting of 355 nm and the wavelength emission setting of 460 nm.

Chain of Human PKK (P03952 391-638): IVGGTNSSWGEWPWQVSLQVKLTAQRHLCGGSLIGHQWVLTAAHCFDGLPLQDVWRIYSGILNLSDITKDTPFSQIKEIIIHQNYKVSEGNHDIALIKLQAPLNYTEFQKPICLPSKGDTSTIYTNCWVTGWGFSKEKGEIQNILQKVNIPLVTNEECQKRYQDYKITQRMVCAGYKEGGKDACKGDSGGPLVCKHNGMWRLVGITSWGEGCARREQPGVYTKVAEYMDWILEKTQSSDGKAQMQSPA
Chain of Human PKK (P03952 20-390 partner): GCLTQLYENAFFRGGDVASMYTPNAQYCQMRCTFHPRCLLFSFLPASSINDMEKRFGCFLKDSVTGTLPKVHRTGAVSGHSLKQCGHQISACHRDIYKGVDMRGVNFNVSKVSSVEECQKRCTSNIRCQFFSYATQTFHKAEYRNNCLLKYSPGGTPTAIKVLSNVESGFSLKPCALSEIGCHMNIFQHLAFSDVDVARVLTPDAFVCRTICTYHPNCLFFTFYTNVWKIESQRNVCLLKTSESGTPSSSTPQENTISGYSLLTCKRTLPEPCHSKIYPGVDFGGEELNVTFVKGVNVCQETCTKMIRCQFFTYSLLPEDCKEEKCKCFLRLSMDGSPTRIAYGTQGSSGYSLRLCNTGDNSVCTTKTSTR

Row | SMILES | IC50 [nM]
1 | Cc1nc(N2C[C@@H]3[C@@H](O)[C@@H]3C2)ccc1Cn1cc(C(=O)N[C@@H]2CCc3c2n[nH]c3C)cn1 [Example 59, 1-({6-[(1R,5S,6R)-6-Hydroxy-3-azabicyclo[3.1.0]hexan-3-yl]-2-methylpyridin-3-yl}methyl)-N-[(6R)-3-methyl-2H,4H,5H,6H-cyclopenta[c]pyrazol-6-yl]-1H-pyrazole-4-carboxamide] | 17
2 | Cc1nc(N2CC3COCC(C3)C2)ccc1Cn1cc(C(=O)N[C@@H]2CCc3c2n[nH]c3C)cn1 [Example 43, N-[(6R)-3-Methyl-2H,4H,5H,6H-cyclopenta[c]pyrazol-6-yl]-1-[(2-methyl-6-{3-oxa-7-azabicyclo[3.3.1]nonan-7-yl]pyridin-3-yl)methyl]-1H-pyrazole-4-carboxamide] | 23
3 | Cc1nc(N2CC3CC(C2)C3O)ccc1Cn1cc(C(=O)N[C@@H]2CCc3c2n[nH]c3C)cn1 (stereo partly drawn) [Example 39, 1-[(6-{6-Hydroxy-3-azabicyclo[3.1.1]heptan-3-yl]-2-methylpyridin-3-yl)methyl]-N-[(6R)-3-methyl-2H,4H,5H,6H-cyclopenta[c]pyrazol-6-yl]-1H-pyrazole-4-carboxamide] | 9
4 | Cc1nc(N2CCC3C(CC2)C3(F)F)ccc1Cn1cc(C(=O)N[C@@H]2CCc3c2n[nH]c3C)cn1 (stereo partly drawn) [Example 66, 1-[(6-{8,8-Difluoro-4-azabicyclo[5.1.0]octan-4-yl]-2-methylpyridin-3-yl)methyl]-N-[(6R)-3-methyl-2H,4H,5H,6H-cyclopenta[c]pyrazol-6-yl]-1H-pyrazole-4-carboxamide] | 51
5 | Cc1nc(N2CCC3(CCOC3)C2)ccc1Cn1cc(C(=O)N[C@@H]2CCc3c2n[nH]c3C)cn1 (stereo partly drawn) [Example 73, N-[(6R)-3-Methyl-2H,4H,5H,6H-cyclopenta[c]pyrazol-6-yl]-1-[(2-methyl-6-{2-oxa-7-azaspiro[4.4]nonan-7-yl}pyridin-3-yl)methyl]-1H-pyrazole-4-carboxamide] | 17
6 | Cc1nc(N2CC(n3cccn3)C2)ccc1Cn1cc(C(=O)N[C@@H]2CCc3c2n[nH]c3C)cn1 [Example 58, N-[(6R)-3-Methyl-2H,4H,5H,6H-cyclopenta[c]pyrazol-6-yl]-1-({2-methyl-6[3-(1H-pyrazol-1-yl)azetidin-1-yl]pyridin-3-yl}methyl)-1H-pyrazole-4-carboxamide] | 20
7 | Cc1nc(N2CCC3(C2)CC3(F)F)ccc1Cn1cc(C(=O)N[C@@H]2CCc3c2n[nH]c3C)cn1 (stereo partly drawn) [Example 78, 1-[(6-{1,1-Difluoro-5-azaspiro[2.4]heptan-5-yl}-2-methylpyridin-3-yl)methyl]-N-[(6R)-3-methyl-2H,4H,5H,6H-cyclopenta[c]pyrazol-6-yl]-1H-pyrazole-4-carboxamide] | 9
8 | Cc1nc(N2CC(CO)C2)ccc1Cn1cc(C(=O)N[C@@H]2CCc3c2n[nH]c3C)cn1 [Example 56, 1-({6-[3-(Hydroxymethyl)azetidin-1-yl]-2-methylpyridin-3-yl}methyl)-N-[(6R)-3-methyl-2H,4H,5H,6H-cyclopenta[c]pyrazol-6-yl]-1H-pyrazole-4-carboxamide] | 56
9 | Cc1nc(N2CCCCC2)ccc1Cn1cc(C(=O)N[C@@H]2CCc3c2n[nH]c3C)cn1 [Example 34, N-[(6R)-3-Methyl-2H,4H,5H,6H-cyclopenta[c]pyrazol-6-yl]-1-{[2-methyl-6-(piperidin-1-yl)pyridin-3-yl]methyl}-1H-pyrazole-4-carboxamide] | 11
10 | Cc1nc(N2CCCCCC2)ccc1Cn1cc(C(=O)N[C@@H]2CCc3c2n[nH]c3C)cn1 [Example 65, 1-{[6-(Azepan-1-yl)-2-methylpyridin-3-yl]methyl}-N-[(6R)-3-methyl-2H,4H,5H,6H-cyclopenta[c]pyrazol-6-yl]-1H-pyrazole-4-carboxamide] | 10
11 | Cc1nc(N2CC3(CC(O)C3)C2)ccc1Cn1cc(C(=O)N[C@@H]2CCc3c2n[nH]c3C)cn1 [Example 76, 1-[(6-{6-Hydroxy-2-azaspiro[3.3]heptan-2-yl}-2-methylpyridin-3-yl)methyl]-N-[(6R)-3-methyl-2H,4H,5H,6H-cyclopenta[c]pyrazol-6-yl]-1H-pyrazole-4-carboxamide] | 572
12 | Cc1nc(N2CC3CC3C2)ccc1Cn1ncc(C(=O)N[C@@H]2CCc3c(C)n[nH]c32)n1 (stereo partly drawn) [Example 10, 2-[(6-{3-Azabicyclo[3.1.0]hexan-3-yl}-2-methylpyridin-3-yl)methyl]-N-[(6R)-3-methyl-1H,4H,5H,6H-cyclopenta[c]pyrazol-6-yl]-2H-1,2,3-triazole-4-carboxamide] | 26
13 | COC1(C)CN(c2ccc(Cn3cc(C(=O)N[C@@H]4CCc5c4n[nH]c5C)cn3)c(C)n2)C1 [Example 44, 1-{[6-(3-Methoxy-3-methylazetidin-1-yl)-2-methylpyridin-3-yl]methyl}-N-[(6R)-3-methyl-2H,4H,5H,6H-cyclopenta[c]pyrazol-6-yl]-1H-pyrazole-4-carboxamide] | 20
14 | Cc1nc(N2CC(C#N)C2)ccc1Cn1cc(C(=O)N[C@@H]2CCc3c2n[nH]c3C)cn1 [Example 57, 1-{[6-(3-Cyanoazetidin-1-yl)-2-methylpyridin-3-yl]methyl}-N-[(6R)-3-methyl-2H,4H,5H,6H-cyclopenta[c]pyrazol-6-yl]-1H-pyrazole-4-carboxamide] | 37

Next, values leading:

Row | IC50 [nM] | SMILES
15 | 9 | Cc1nc(N2CC3C(C2)C3(C)C)ccc1Cn1cc(C(=O)N[C@@H]2CCc3c2n[nH]c3C)cn1 (stereo partly drawn) [Example 80, 1-[(6-{6,6-Dimethyl-3-azabicyclo[3.1.0]hexan-3-yl]-2-methylpyridin-3-yl)methyl]-N-[(6R)-3-methyl-2H,4H,5H,6H-cyclopenta[c]pyrazol-6-yl]-1H-pyrazole-4-carboxamide]
16 | 0.9 | Cc1nc(N2CC3CC3C2)ccc1Cn1cc(C(=O)N[C@@H]2CCc3c2n[nH]c3C)c(C(C)(C)O)n1 (stereo partly drawn) [Example 106, 1-[(6-{3-Azabicyclo[3.1.0]hexan-3-yl}-2-methylpyridin-3-yl)methyl]-3-(2-hydroxypropan-2-yl)-N-[(6R)-3-methy-2H,4H,5H,6H-cyclopenta[c]pyrazol-6-yl]-1H-pyrazole-4-carboxamide]
17 | 9 | Cc1nc(N2CC3C(C2)C3(F)F)ccc1Cn1cc(C(=O)N[C@H]2CCc3c(C)n[nH]c32)cn1 (stereo partly drawn) [Example 4, 1-[(6-{6,6-Difluoro-3-azabicyclo[3.1.0]hexan-3-yl}-2-methylpyridin-3-yl)methyl]-N-[(6S)-3-methyl-1H,4H,5H,6H-cyclopenta[c]pyrazol-6-yl]-1H-pyrazole-4-carboxamide]
18 | 3 | COCc1nn(Cc2cnc(N3CC4C(C3)C4(F)F)nc2C)cc1C(=O)N[C@@H]1CCc2c(C)n[nH]c21 (stereo partly drawn) [Example 26, 1-[(2-{6,6-Difluoro-3-azabicyclo[3.1.0]hexan-3-yl}-4-methylpyrimidin-5-yl)methyl]-3-(methoxy-methyl)-N-[(6R)-3-methyl-1H,4H,5H,6H-cyclo-penta[c]pyrazol-6-yl]-1H-pyrazole-4-carboxamide]
19 | 4 | Cc1nc(N2CC3C(C2)C3(F)F)ncc1Cn1cc(C(=O)N[C@@H]2CCc3c(C)n[nH]c32)nn1 (stereo partly drawn) [Example 85, 1-[(2-{6,6-Difluoro-3-azabicyclo[3.1.0]hexan-3-yl}-4-methylpyrimidin-5-yl)methyl]-N-[(6R)-3-methyl-1H,4H,5H,6H-cyclopenta[c]pyrazol-6-yl]-1H-1,2,3-triazole-4-carboxamide]
20 | 0.9 | Cc1nc(N2CC3C(C2)C3(F)F)ccc1Cn1cc(C(=O)N[C@@H]2CCc3c(C)n[nH]c32)c(C)n1 (stereo partly drawn) [Example 18, 1-[(6-{6,6-Difluoro-3-azabicyclo[3.1.0]hexan-3-yl}-2-methylpyridin-3-yl)methyl]-3-methyl-3-methyl-N-[(6R)-3-methyl-1H,4H,5H,6H-cyclopenta[c]pyrazol-6-yl]-1H-pyrazole-4-carboxamide]
21 | 2 | Cc1nc(N2CC3C(C2)C3(F)F)ncc1Cn1cc(C(=O)N[C@@H]2CCc3c2n[nH]c3C)cn1 (stereo partly drawn) [Example 84, 1-[(2-{6,6-Difluoro-3-azabicyclo[3.1.0]hexan-3-yl}-4-methylpyrimidin-5-yl)methyl]-N-[(6R)-3-methyl-2H,4H,5H,6H-cyclopenta[c]pyrazol-6-yl]-1H-pyrazole-4-carboxamide, TFA salt]
22 | 7 | Cc1nc(N2CC3(CC3)C2)ncc1Cn1cc(C(=O)N[C@@H]2CCc3c(C)n[nH]c32)c(C)n1 [Example 29, 1-[(2-{5-Azaspiro[2.3]hexan-5-yl}-4-methyl-pyrimidin-5-yl)methyl]-3-methyl-N-[(6R)-3-methyl-1H,4H,5H,6H-cyclpenta[c]pyrazol-6-yl]-1H-pyrazole-4-carboxamide]
23 | 4 | Cc1nc(N2CC3CCC3C2)ccc1Cn1cc(C(=O)N[C@@H]2CCc3c2n[nH]c3C)cn1 (stereo partly drawn) [Example 68, 1-[(6-{3-Azabicyclo[3.2.0]heptan-3-yl}-2-methylpyridin-3-yl)methyl]-N-[(6R)-3-methyl-2H,4H,5H,6H-cyclopenta[c]pyrazol-6-yl]-1H-pyrazole-4-carboxamide]
24 | 7 | Cc1nc(N2CCC(C(F)(F)F)C2)ccc1Cn1cc(C(=O)N[C@@H]2CCc3c2n[nH]c3C)cn1 (stereo partly drawn) [Example 60, N-[(6R)-3-Methyl-2H,4H,5H,6H-cyclopenta[c]pyrazol-6-yl]-1-({2-methyl-6-[3-(trifluoromethyl)pyrrolidin-1-yl]pyridin-3-yl}methyl)-1H-pyrazole-4-carboxamide]
25 | 5 | Cc1nc(N2CC(C)C2)ccc1Cn1cc(C(=O)N[C@@H]2CCc3c2n[nH]c3C)cn1 [Example 61, N-[(6R)-3-Methyl-2H,4H,5H,6H-cyclopenta[c]pyrazol-6-yl]-1-{[2-methyl-6-(3-methylazetidin-1-yl)pyridin-3-yl]methyl}-1H-pyrazole-4-carboxamide]
26 | 6 | CCC1(C)CN(c2ccc(Cn3cc(C(=O)N[C@@H]4CCc5c4n[nH]c5C)cn3)c(C)n2)C1 [Example 42, 1-{[6-(3-Ethyl-3-methylazetidin-1-yl)-2-methylpyridin-3-yl]methyl}-N-[(6R)-3-methyl-2H,4H,5H,6H-cyclopenta[c]pyrazol-6-yl]-1H-pyrazole-4-carboxamide]

— patent US10695334B2, “Heteroaromatic carboxamide derivatives as plasma kallikrein inhibitors” (Boehringer Ingelheim International GmbH, priority 2018, dated 2020)
